Reference: US7618958B2, “Stereospecific anxiolytic and anticonvulsant agents with reduced muscle-relaxant, sedative-hypnotic and ataxic effects” (WISYS Technology Foundation, Inc., priority 2004, dated 2009)

Test system: male Wistar rats
Experiment: Elevated plus-maze in rats
Type: in vivo, rat
Conditions: for Open Entries / Closed Entries / Total Distance Travelled (m) / Total Entries / % Open Time / % Open Entries / Time in open arms / Time in closed arms: rats, mean; for Open Entries: SOLVENT mean 2.57; for Closed Entries: SOLVENT mean 7.14; for Total Distance Travelled (m): SOLVENT mean 9.30; for Total Entries: SOLVENT mean 9.71; for % Open Time: SOLVENT mean 20.43; for % Open Entries: SOLVENT mean 25.57; for Time in open arms: SOLVENT mean 50.29; for Time in closed arms: SOLVENT mean 196.29
Description: Except where noted, the methods used were those of Miroslav M., et al., (2004) Pharmacology, Biochemistry and Behavior 79: 279-290. Experiments were carried out on male Wistar rats (Military Farm, Belgrade, Serbia and Montenegro), weighing 200-240 g. All procedures in the study conformed to EEC Directive 86/609 and were approved by the Ethical Committee on Animal Experimentation of the Medical Faculty in Belgrade. The rats were housed in transparent plastic cages, six animals per cage, and had free access to pelleted food and tap water before and after drug administration. The temperature of the animal room was 22±1° C., the relative humidity 40-70%, the illumination 120 1× and the 12/12-h light/dark period (light on at 06:00 h). All handling and testing took place during the light portion of the cycle. Throughout the study the animals were used only once.
Midazolam and flumazenil were generously donated from F. Hoffman-La Roche (Basel, Switzerland). Zolpidem was purchased from Toronto Research Chemicals (North York, Canada) and DMCM from Research Biochemicals (Natick, Mass., USA). All drugs were dissolved/suspended with the aid of sonication in a solvent containing 85% distilled water, 14% propylene glycol and 1% Tween 80™, and were administered intraperitoneally, in a volume of 1 ml/kg, 20 min before testing. Doses are expressed as the base forms of the drugs. In the cases of combined treatment, agonists were administered at separate sites, immediately after the antagonist. Each animal received a total volume of 2 ml/kg of compounds tested or appropriate vehicles, at two different injection sites.
The test apparatus was constructed of sheet metal, with a black rubber floor. It consisted of a maze elevated to a height of 50 cm with two open (50×10 cm) and two enclosed arms (50×10×40 cm), connected by junction area (central platform) measured 10×10 cm. Although the floor was rubberized, a ledge of sheet metal (0.3 cm high) surrounding the open arms was added, to avoid rats falling off. The illumination in the experimental room consisted of one red neon tube fixed on the ceiling, giving light intensity of 10 1× on the surface of the arms. The experiments were carried out during the diurnal phase (between 08:00 and 12:00 h). At the beginning of the experiment, rats were placed in the centre of the maze, facing one of the enclosed arms and observed for 5 min. The observer sat in the same room 1 m from the maze. After each trial, the maze was cleaned with dry and wet towels. Throughout the study, the number of rats per treatment group was 8-14. Each experiment was run over 4 consecutive days, with three control rats per day; as there was no difference in plus-maze activity among control subgroups, they were pooled in a single control group (n=12).
All numerical data presented in the figures were given as the mean±S.E.M. Each dose-response curve (agonist or antagonist alone or agonist+antagonist) was assessed by a one-way ANOVA. If the ANOVA was significant, each treatment condition was compared with the appropriate solvent control by a Dunnett's test (a=0.05). In case of significant effect in the number of enclosed arm entries, an analysis of covariance (ANCOVA) was performed in the anxiety-related parameters using the number of enclosed arm entries as covariate. Interactions between the agonists and antagonists were analyzed separately with a two-way ANOVA [factors: agonist dose versus cotreatment (an antagonist or saline)]; pairwise comparisons for the assessment of the antagonist influence on the agonist effects were conducted by Tukey's test, one of the methods recommended even in the absence of an overall significant F-test (Wilcox R R. New designs in analysis of variance. Annu Rev Psychol 1987; 38: 29-60). Statistical analyses were performed with commercial statistical software for PC, Stat for Windows R. 5.0.

[1] = SH-053-S 20 mg/kg ip, N 6, t test p = 0.668
[2] = SH-053-S 30 mg/kg ip, N 7, t test p ≦ 0.05

C#Cc1ccc2c(c1)C(c1ccccc1)=NC(C)c1c(C(=O)OCC)ncn1-2 (stereo not drawn) [SH-053-S—CH3, 8-Ethynyl-4-methyl-6-phenyl-4H-2,5,10b-triaza-benzo[e]azulene-3-carboxylic acid ethyl ester]
Open Entries [1]: 3.00 | Closed Entries (SH-053-S 20 mg/kg ip, N 6, t test p = 0.059): 5.33 | Total Distance Travelled (m) (SH-053-S 20 mg/kg ip, N 6, t test p = 0.145): 7.49 m | Total Entries (SH-053-S 20 mg/kg ip, N 6, t test p = 0.349): 8.33 | % Open Time (SH-053-S 20 mg/kg ip, N 6, t test p = 0.426): 27.50% | % Open Entries (SH-053-S 20 mg/kg ip, N 6, t test p = 0.265): 34.17% | Time in open arms [1]: 61.83 | Time in closed arms (SH-053-S 20 mg/kg ip, N 6, t test p ≦ 0.05): 144.67 | Open Entries [2]: 4.57 | Closed Entries (SH-053-S 30 mg/kg ip, N 7, t test p = 0.481): 6.29 | Total Distance Travelled (m) (SH-053-S 30 mg/kg ip, N 7, t test p = 0.910): 9.48 m | Total Entries (SH-053-S 30 mg/kg ip, N 7, t test p = 0.525): 10.86 | % Open Time [2]: 36.00% | % Open Entries [2]: 43.71% | Time in open arms [2]: 93.71 | Time in closed arms (SH-053-S 30 mg/kg ip, N 7, t test p = 0.116): 164.71 | effects on locomotor activity (summary of FIG. 1, FIG. 2, Tables 3-6) (at the dose tested): no measurable effects on locomotor activity | anxiolytic activity (summary of FIG. 1, FIG. 2, Tables 3-6) (rat, in vivo): has anxiolytic activity
